In ChEMBL document CHEMBL1145646, “New anti-inflammatory ergostane-type ecdysteroids from the sclerotium of Polyporus umbellatus” (2008):

What follows are compounds tested on Mus musculus (assay: Inhibition of TPA-induced inflammation in mouse assessed per ear by edema assay).
Format: functional

Row | Structure (SMILES) | ID50 [µmol/ear]
1 | CC(C)C(C)/C=C/[C@@H](C)[C@H]1CC[C@H]2C3=C[C@@H](O)[C@@]4(O)C[C@@H](O)CC[C@]4(C)[C@H]3CC[C@]12C (some centres undefined) | 0.666
2 | COc1ccc2c(c1)c(CC(=O)O)c(C)n2C(=O)c1ccc(Cl)cc1 [INDOMETHACIN] | 0.838
3 | CC(C)C(C)[C@H](O)[C@@H]1O[C@H]2C[C@@]3(O)C4=CC(=O)[C@@H]5C[C@@H](O)[C@@H](O)C[C@]5(C)[C@H]4CC[C@]3(C)[C@H]2[C@@]1(C)O (some centres undefined) [POLYPOROID A] | 0.531
4 | C[C@@H]1[C@H]([C@@H](O)[C@](C)(O)[C@H]2CC[C@@]3(O)C4=CC(=O)[C@@H]5C[C@@H](O)[C@@H](O)C[C@]5(C)[C@H]4CC[C@]23C)OC[C@H]1C [POLYPOROID B] | 0.682
5 | CC(C)C(C)C[C@@H](O)[C@](C)(O)[C@H]1[C@@H](O)C[C@@]2(O)C3=CC(=O)[C@@H]4C[C@@H](O)[C@@H](O)C[C@]4(C)[C@H]3CC[C@]12C (some centres undefined) [POLYPOROID C] | 0.184
6 | CC(C)C(C)C[C@@H](O)[C@](C)(O)[C@H]1CC[C@@]2(O)C3=CC(=O)[C@@H]4C[C@@H](O)[C@@H](O)C[C@]4(C)[C@H]3CC[C@]12C (some centres undefined) [POLYPORUSTERONE A] | 0.141
7 | C=C(C[C@@H](O)[C@](C)(O)[C@H]1CC[C@@]2(O)C3=CC(=O)[C@@H]4C[C@@H](O)[C@@H](O)C[C@]4(C)[C@H]3CC[C@]12C)C(C)C [POLYPORUSTERONE B] | 0.117
8 | CC(C)C(C)C1O[C@H]1[C@](C)(O)[C@H]1CC[C@@]2(O)C3=CC(=O)[C@@H]4C[C@@H](O)[C@@H](O)C[C@]4(C)[C@H]3CC[C@]12C (some centres undefined) [POLYPORUSTERONE C] | 0.289
9 | C=C(C[C@@H](O)[C@@H](C)[C@H]1CC[C@@]2(O)C3=CC(=O)[C@@H]4C[C@@H](O)[C@@H](O)C[C@]4(C)[C@H]3CC[C@]12C)C(C)C [POLYPORUSTERONE G] | 0.207
